The values that follow come from patent US20030060498A1, “5-arylsulfonyl indoles useful for treating disease” (priority 2001, published 2003).

Where a name gives a salt, the structure may show the parent alone. Read-outs that look alike come from different tables or passages of the source. Bounds are passed on as bounds.

In data set [1] the target is T1, cloned human 5-HT6 receptor (Homo sapiens, UniProt P50406).
T1 construct: host or cells: HeLa cells (G-418 selection); membrane preparation
The data set can be described thus: 5-HT6 receptor binding assay ([3H]-LSD radioligand, SPA beads). The procedure: 5-HT6 Receport Binding Assay
Growth of Cells and Membrane Preparation:
Hela cells containing the cloned human 5-HT6 receptor were acquired from Dr. David R. Sibley's laboratory in National Institute of Health (see Sibley, D. R., J. Neurochemistry, 66, 47-56, 1996). Cells were grown in high glucose Dulbecco's modified Eagle's medium, supplemented with L-glutamine, 0.5% sodium pyruvate, 0.3% penicillin-streptomycin, 0.025% G-418 and 5% Gibco fetal bovine serum and then were harvested, when confluent, in cold phosphate buffered saline.
Harvested intact cells were washed once in cold phosphate-buffered saline. The cells were pelleted and resuspended in 100 ml of cold 50 mM Tris, 5 mM EDTA and 5 mM EGTA, pH 7.4. Homogenization was with a Vir Tishear generator, 4 cycles for 30 seconds each at setting 50. The homogenized cells were centrifuged at […] for 10 minutes and the supernatant was removed. The pellet was resuspended in 100 ml of the above buffer and rehomogenized for 2 cycles. The rehomogenized cells were then centrifuged at […] for 10 minutes and the supernatant was removed. The combined supernatant (200ml) was centrifuged at 23,000 RPM (80,000×g) for 1 hour in a Beckman Rotor (42.1 Ti). The membrane pellet was resuspended in […] of assay buffer containing HEPES 20 mM, MgCl2 10 mM, NaCl 150 mM, EDTA 1 mM, pH 7.4 and stored frozen in aliqouts at −70° C.
5-HT6 Receptor Binding Assay
The radioligand binding assay used [^3H]-lysergic acid diethylamide (LSD). The assay was carried out in Wallac 96-well sample plates by the addition of 11 μl of the test sample at the appropriate dilution (the assay employed 11 serial concentrations of samples run in duplicate), 11 μl of radioligand, and 178 μl of a washed mixture of WGA-coated SPA beads and membranes in binding buffer. The plates were shaken for about 5 minutes and then incubated at room temperature for 1 hour. The plates were then loaded into counting cassettes and counted in a Wallac MicroBeta Trilux scintillation counter.
Binding Constant (Ki) Determination
Eleven serial dilutions of test compounds were distributed to assay plates using the PE/Cetus Pro/Pette pipetter. These dilutions were, followed by radioligand and the bead-membrane mixture prepared as described above. The specifically bound cpm obtained were fit to a one-site binding model using GraphPad Prism ver. 3.0. Estimated IC50 values were converted to Ki values using the Cheng-Prusoff equation (Cheng, Y. C. et al., Biochem. Pharmacol., 22, 3099-108, 1973).

T1 sequence (P50406 whole entry): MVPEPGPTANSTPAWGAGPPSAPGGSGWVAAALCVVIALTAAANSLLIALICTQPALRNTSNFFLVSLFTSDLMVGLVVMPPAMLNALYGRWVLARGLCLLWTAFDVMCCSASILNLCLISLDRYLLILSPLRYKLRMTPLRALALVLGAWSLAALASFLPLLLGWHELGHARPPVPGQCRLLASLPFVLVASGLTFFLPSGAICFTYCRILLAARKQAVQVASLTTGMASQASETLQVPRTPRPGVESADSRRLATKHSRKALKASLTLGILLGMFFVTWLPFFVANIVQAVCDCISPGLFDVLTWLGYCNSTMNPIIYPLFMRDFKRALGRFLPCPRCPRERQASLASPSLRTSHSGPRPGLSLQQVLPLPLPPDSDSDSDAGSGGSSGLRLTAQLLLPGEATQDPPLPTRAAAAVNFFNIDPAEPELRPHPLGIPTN

In the case of `CNCCc1c(C)n(C)c2ccc(S(=O)(=O)c3cccc4ccccc34)cc12.Cl`, the melting point was > 141 °C (dec.). Same read-out and setting: to `Cc1[nH]c2ccc(S(=O)(=O)c3cccc4ccccc34)cc2c1CCN` (as salt: hydrochloride) [Example 21, 2-[2-methyl-5-(1-naphthylsulfonyl)-1H-indol-3-yl]ethanamine Hydrochloride] belongs above 280 °C. The molecule `Cl.Cn1cc(CCN)c2cc(S(=O)(=O)c3ccccc3)ccc21` [Example 1, 2-[1-methyl-5-(phenylsulfonyl)-1H-indol-3-yl]ethanamine Hydrochloride] registered a melting point of 285.3 to 292 °C. This molecule also returned a Ki in data set [1] of 1.5 nM. For `Cc1[nH]c2ccc(S(=O)(=O)c3ccccc3)cc2c1CCN.Cl` [Example 2, 2-[2-methyl-5-(phenylsulfonyl)-1H-indol-3-yl]ethanamine Hydrochloride] the same measures were above 280 °C and 38 nM. For `CNCCc1c(C)[nH]c2ccc(S(=O)(=O)c3ccccc3)cc12` [Example 3, N-methyl-2-[2-methyl-5-(phenylsulfonyl)-1H-indol-3-yl]ethanamine] the same measures were 164.6 to 166 °C and 37 nM. Molecule `Cc1c(CCN)c2cc(S(=O)(=O)c3ccccc3)ccc2n1C.Cl` [Example 4, 2-[1,2-dimethyl-5-(phenylsulfonyl)-1H-indol-3-yl]ethanamine Hydrochloride] had a melting point of 155 to 158.3 °C. The affinity in data set [1], expressed as Ki, was 4 nM.

Turning to `CNCCc1c(C)n(C)c2ccc(S(=O)(=O)c3ccccc3)cc12.Cl` [Example 5, 2-[1,2-dimethyl-5-(phenylsulfonyl)-1H-indol-3-yl]-N-methylethanamine Hydrochloride], the melting point was 266.8 to 268.2 °C. Besides, affinity in data set [1] was put at a Ki of 9 nM. Consider `Cc1c(CCN(C)C)c2cc(S(=O)(=O)c3ccccc3)ccc2n1C` [Example 6, 2-[1,2-dimethyl-5-(phenylsulfonyl)-1H-indol-3-yl]-N,N-dimethylethanamine], for which the melting point lay within 169.6 to 171.9 °C. In data set [1], this molecule had a Ki of 1.8 nM. The matching figures for `Cc1ccc(S(=O)(=O)c2ccc3c(c2)c(CCN)cn3C)cc1.Cl` [Example 7, 2-{1-methyl-5-[(4-methylphenyl)sulfonyl]-1H-indol-3-yl}ethanamine Hydrochloride]: 186.3 to 190.2 °C and 3.3 nM.

With `CNCCc1cn(C)c2ccc(S(=O)(=O)c3ccc(C)cc3)cc12.Cl` [Example 8, N-methyl-2-{1-methyl-5-[(4-methylphenyl)sulfonyl]-1H-indol-3-yl}ethanamine hydrochloride], the melting point was in the range of 275 to 277.6 °C. This molecule also came in with a Ki in data set [1] of 7.6 nM. The matching figures for `Cc1ccc(S(=O)(=O)c2ccc3[nH]c(C)c(CCN)c3c2)cc1.Cl` [Example 9, 2-{2-methyl-5-[(4-methylphenyl)sulfonyl]-1H-indol-3-yl}ethanamine Hydrochloride]: above 275 °C and 308 nM. `Cc1ccc(S(=O)(=O)c2ccc3c(c2)c(CCN)c(C)n3C)cc1.Cl` [Example 10, 2-{1,2-dimethyl-5-[(4-methylphenyl)sulfonyl]-1H-indol-3-yl}ethanamine Hydrochloride] had a melting point of 168 to 172 °C. Besides, the affinity in data set [1], expressed as Ki, was 22 nM. For `CNCCc1c(C)n(C)c2ccc(S(=O)(=O)c3ccc(C)cc3)cc12.Cl` [Example 11, 2-{1,2-dimethyl-5-[(4-methylphenyl)sulfonyl]-1H-indol-3-yl}-N-methylethanamine Hydrochloride] the same measures were 259.7 to 262.3 °C and 15 nM. For `Cc1[nH]c2ccc(S(=O)(=O)c3ccc(C(F)(F)F)cc3)cc2c1CCN.Cl` [Example 12, 2-(2-methyl-5-{[4-(trifluoromethyl)phenyl]sulfonyl}-1H-indol-3-yl)ethanamine Hydrochloride], the melting point is above 275 °C. Moreover, in data set [1] ([3H]-LSD, membranes of Hela cells containing the cloned human 5-HT6 receptor, IC50 converted by Cheng-Prusoff, average, read-out: Ki), the Ki stood at 146 nM. In the case of `Cc1c(CCN)c2cc(S(=O)(=O)c3ccc(C(F)(F)F)cc3)ccc2n1C.Cl` [Example 13, 2-(1,2-dimethyl-5-{[4-(trifluoromethyl)phenyl]sulfonyl}-1H-indol-3-yl)ethanamine Hydrochloride], the melting point was above 280 °C. Also, the inhibition constant Ki in data set [1] amounted to 36 nM. `CNCCc1c(C)n(C)c2ccc(S(=O)(=O)c3ccc(C(F)(F)F)cc3)cc12.Cl` [Example 14, 2-(1,2-dimethyl-5-{[4-(trifluoromethyl)phenyl]sulfonyl}-1H-indol-3-yl)-N-methylethanamine Hydrochloride] showed a melting point of 189.1 to 193.7 °C. Further, in data set [1], the affinity, expressed as Ki, was 18 nM.

In turn, `COc1cccc(S(=O)(=O)c2ccc3[nH]c(C)c(CCN)c3c2)c1.Cl` [Example 15, 2-{5-[(3-methoxyphenyl)sulfonyl]-2-methyl-1H-indol-3-yl}ethanamine Hydrochloride] came in with a melting point of 300 to 302 °C. In data set [1], the affinity, expressed as Ki, was 209 nM. Take `COc1cccc(S(=O)(=O)c2ccc3c(c2)c(CCN)c(C)n3C)c1.Cl` [Example 16, 2-{5-[(3-methoxyphenyl)sulfonyl]-1,2-dimethyl-1H-indol-3-yl}ethanamine Hydrochloride]: the melting point is 269.5 to 272.4 °C. In data set [1], this molecule returned a Ki of 3.4 nM. On to `CNCCc1c(C)n(C)c2ccc(S(=O)(=O)c3cccc(OC)c3)cc12.Cl` [Example 17, 2-{5-[(3-methoxyphenyl)sulfonyl]-1,2-dimethyl-1H-indol-3-yl}-N-methylethanamine Hydrochloride], for which the melting point lay in the range of 192.4 to 196 °C. Also, the affinity in data set [1], expressed as Ki, was 10 nM.

The molecule `Cc1[nH]c2ccc(S(=O)(=O)c3cc(F)cc(F)c3)cc2c1CCN.Cl` [Example 18, 2-{5-[(3,5-difluorophenyl)sulfonyl]-2-methyl-1H-indol-3-yl}ethanamine Hydrochloride] came in with a melting point above 280 °C. Affinity in data set [1] was put at a Ki of 66 nM. `Cc1c(CCN)c2cc(S(=O)(=O)c3cc(F)cc(F)c3)ccc2n1C.Cl` [Example 19, 2-{5-[(3,5-difluorophenyl)sulfonyl]-1,2-dimethyl-1H-indol-3-yl}ethanamine Hydrochloride] had a melting point of 288.6 to 290.5 °C. The molecule further returned a Ki in data set [1] of 5.6 nM.

`CNCCc1c(C)n(C)c2ccc(S(=O)(=O)c3cc(F)cc(F)c3)cc12.Cl` [Example 20, 2-{5-[(3,5-difluorophenyl)sulfonyl]-1,2-dimethyl-1H-indol-3-yl}-N-methylethanamine Hydrochloride]: the melting point was 253.5 to 257.8 °C. The molecule also had a Ki in data set [1] of 4.6 nM. Regarding `Cc1[nH]c2ccc(S(=O)(=O)c3cccc4ccccc34)cc2c1CCN` [Example 21, 2-[2-methyl-5-(1-naphthylsulfonyl)-1H-indol-3-yl]ethanamine Hydrochloride], the Ki in data set [1] is 0.9 nM. In the case of `Cc1c(CCN)c2cc(S(=O)(=O)c3cccc4ccccc34)ccc2n1C.Cl` [Example 22, 2-[1,2-dimethyl-5-(1-naphthylsulfonyl)-1H-indol-3-yl]ethanamine Hydrochloride], the melting point was > 175 °C (dec.). This molecule also gave a Ki in data set [1] of 3.1 nM.
